From patent US20180305332A1, “Bispiperidinyl Derivatives as Liver X Receptor Beta Agonists, Compositions, and Their Use” (Merck Sharp & Dohme Corp., priority 2015, published 2018)
pEC50: −log10 of the molar value.

How the values were obtained:
[1] = biological target: T1, GST tagged LXRbeta LBD (ligand binding domain) (Homo sapiens, UniProt P55055); experiment: LanthaScreen TR-FRET Liver X Receptor Coactivator Assay, LXR beta-LBD; type: biochemical; details: relative to reference T0901317; for pEC50: Inflection Point (potency), co-activator recruitment, read-out: LXR beta IP; for Emax: activity at max dose (efficacy), read-out: LXR beta act @ max dose (%)
T1 construct: purchased Invitrogen pv4658.pps
T1 sequence (P55055 222-460 limits assumed): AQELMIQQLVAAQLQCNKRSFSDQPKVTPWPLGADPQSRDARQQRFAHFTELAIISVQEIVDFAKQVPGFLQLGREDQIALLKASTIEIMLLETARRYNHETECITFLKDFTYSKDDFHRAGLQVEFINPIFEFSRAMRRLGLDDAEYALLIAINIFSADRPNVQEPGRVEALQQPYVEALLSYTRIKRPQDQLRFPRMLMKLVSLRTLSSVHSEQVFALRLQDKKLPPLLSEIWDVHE
Summary of the method: (§1)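 Compound-induced coactivator recruitment measured by TR-FRET between a terbium anti-GST antibody bound to the GST-LBD (LXRα or LXRβ, human) and a fluorescein coactivator peptide, after incubation at room temperature. Potency (inflection point) and efficacy (Emax) referenced to T0901317.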

[2] = biological target: T2, GST tagged LXRalpha LBD (ligand binding domain) (Homo sapiens, UniProt Q13133); experiment: LanthaScreen TR-FRET Liver X Receptor Coactivator Assay, LXR alpha-LBD; type: biochemical; details: relative to reference T0901317; for pEC50: Inflection Point (potency), co-activator recruitment, read-out: LXR alpha IP; for Emax: activity at max dose (efficacy), read-out: LXR alpha act @ max dose (%)
T2 construct: purchased Invitrogen pv4655
T2 sequence (Q13133 209-447 limits assumed): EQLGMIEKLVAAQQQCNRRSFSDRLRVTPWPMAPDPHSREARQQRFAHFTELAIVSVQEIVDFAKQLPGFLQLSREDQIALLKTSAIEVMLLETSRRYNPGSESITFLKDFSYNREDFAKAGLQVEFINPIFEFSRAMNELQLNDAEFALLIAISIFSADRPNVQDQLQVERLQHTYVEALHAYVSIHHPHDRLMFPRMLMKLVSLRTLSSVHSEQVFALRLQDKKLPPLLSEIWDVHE
Summary of the method: as §1

| pEC50 [1] | Emax [1] | pEC50 [2] | Emax [2] | Structure (SMILES) |
| --- | --- | --- | --- | --- |
| 6.69 | 78% | 5.85 | 28% | CN(Cc1ccon1)C(=O)c1ccc(N2CCC(C3CCN(C(=O)[C@](O)(c4ccccc4)C(F)(F)F)CC3)CC2)cc1Cl [Example E-52, 2-chloro-N-(isoxazol-3-ylmethyl)-N-methyl-4-{1′-[(2R)-3,3,3-trifluoro-2-hydroxy-2-phenylpropanoyl]-4,4′-bipiperidin-1-yl}benzamide] |
| 7.46 | 93% | 5.84 | 55% | CN(Cc1noc(C2CC2)n1)C(=O)c1ccc(N2CCC(C3CCN(C(=O)[C@](O)(c4ccccc4)C(F)(F)F)CC3)CC2)cc1Cl [Example E-54, 2-chloro-N-[(5-cyclopropyl-1,2,4-oxadiazol-3-yl)methyl]-N-methyl-4-{1′-[(2R)-3,3,3-trifluoro-2-hydroxy-2-phenylpropanoyl]-4,4′-bipiperidin-1-yl}benzamide] |
| 7.18 | 106% | 5.95 | 41% | Cc1nc(CCN(C)C(=O)c2ccc(N3CCC(C4CCN(C(=O)[C@](O)(c5ccccc5)C(F)(F)F)CC4)CC3)cc2Cl)no1 [Example E-55, 2-chloro-N-methyl-N-[2-(5-methyl-1,2,4-oxadiazol-3-yl)ethyl]-4-{1′-[(2R)-3,3,3-trifluoro-2-hydroxy-2-phenylpropanoyl]-4,4′-bipiperidin-1-yl}benzamide] |

Second part, the compound before the results:

| Structure (SMILES) | pEC50 [1] | Emax [1] | pEC50 [2] | Emax [2] |
| --- | --- | --- | --- | --- |
| COCCCN(C)C(=O)c1ccc(N2CCC(C3CCN(C(=O)[C@](O)(c4ccccc4)C(F)(F)F)CC3)CC2)cc1Cl [Example E-48, 2-chloro-N-(3-methoxyproply)-N-methyl-4-{1′-[(2R)-3,3,3-trifluoro-2-hydroxy-2-phenylpropanoyl]-4,4′-bipiperidin-1-yl}benzamide] | 6.76 | 106% | 5.77 | 26% |
| CN(Cc1nccs1)C(=O)c1ccc(N2CCC(C3CCN(C(=O)[C@](O)(c4ccccc4)C(F)(F)F)CC3)CC2)cc1Cl [Example E-49, 2-chloro-N-methyl-N-(1,3-thiazol-2-ylmethyl)-4-{1′-[(2R)-3,3,3-trifluoro-2-hydroxy-2-phenylpropanoyl]-4,4′-bipiperidin-1-yl}benzamide] | 6.74 | 77% | 5.86 | 30% |
| CN(Cc1ccno1)C(=O)c1ccc(N2CCC(C3CCN(C(=O)[C@](O)(c4ccccc4)C(F)(F)F)CC3)CC2)cc1Cl [Example E-50, 2-chloro-N-(isoxazol-5-ylmethyl)-N-methyl-4-{1′-[(2R)-3,3,3-trifluoro-2-hydroxy-2-phenylpropanoyl]-4,4′-bipiperidin-1-yl}benzamide] | 6.46 | 74% | 5.85 | 31% |
| CC(c1ccon1)N(C)C(=O)c1ccc(N2CCC(C3CCN(C(=O)[C@](O)(c4ccccc4)C(F)(F)F)CC3)CC2)cc1Cl (stereo partly drawn) [Example E-51, 2-chloro-N-(1-isoxazol-3-ylethyl)-N-methyl-4-{1′-[(2R)-3,3,3-trifluoro-2-hydroxy-2-phenylpropanoyl]-4,4′-bipiperidin-1-yl}benzamide] | 6.84 | 62% | 5.77 | 18% |
| CN(C(=O)c1ccc(N2CCC(C3CCN(C(=O)[C@](O)(c4ccccc4)C(F)(F)F)CC3)CC2)cc1Cl)C1CCOC1 (stereo partly drawn) [Example E-53, 2-chloro-N-methyl-N-(tetrahydrofuran-3-yl)-4-{1′-[(2R)-3,3,3-trifluoro-2-hydroxy-2-phenylpropanoyl]-4,4′-bipiperidin-1-yl}benzamide] | 6.66 | 98% | 5.80 | 34% |
| CC(C)(C)OC(=O)NC1CN(C(=O)c2ccc(N3CCC(C4CCN(C(=O)[C@](O)(c5ccccc5)C(F)(F)F)CC4)CC3)cc2Cl)C1 [Example E-56, tert-butyl {1-[(2-chloro-4-{1′-[(2R)-3,3,3-trifluoro-2-hydroxy-2-phenylpropanoyl]-4,4′-bipiperidin-1-yl}phenyl)carbonyl]azetidin-3-yl}carbamate] | 7.68 | 89% | 6.31 | 45% |
